# From patent US20110053773A1, “METHODS OF IMPROVING NUTRITIONAL VALUE OF PLANTS” (UNIVERSITY OF TENNESSEE RESEARCH FOUNDATION, priority 2009, published 2011)
# Legend:
# Format in all cases: in vivo
# kale 'Red Russian' = test: Content analysis of kale: protein, amino acids, fiber, fatty acids, minerals (Example 4, Tables 12-14); conditions: 28 DA-A
# In short: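 Plants were harvested about 4 weeks post-treatment and pooled across replicates to analyse protein, amino acids, fiber, fatty acids and minerals (Na, Ca, P, Mg, K, Fe, Mn, Zn, Cu). Treatments were postemergence insecticide, fungicide, PGRs and safeners. Visual injury scored 0–100% (phytotoxicity, chlorosis, stunting).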
# basil 'Genovese' = test: Content analysis of basil: protein, minerals (Example 4, Tables 10-11); conditions: 28 DA-A
# In short: (§1)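 Greenhouse postemergence applications of chlorpyrifos, chlorothalonil, mepiquat-chloride, paclobutrazol, napthalic anhydride or isoxadifen-ethyl. Visual injury (phytotoxicity, chlorosis, stunting) scored 0–100%, 0 = no response, 100 = plant death. Harvest about 4 weeks after treatment; replicates pooled for protein, mineral, amino acid, fiber and fatty acid analysis.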
# basil ‘Genovese’ = test: Yield, fresh weight of basil after insecticide, fungicide, PGRs and safeners (Example 4, Table 10); conditions: DA-A, check 31.8
# In short: as §1
# kale ‘Red Russian’ = test: Yield, fresh weight of kale after insecticide, fungicide and PGRs (Example 4, Table 12); conditions: 28 DA-A, Untreated Check 106.9
# In short: as §1
# [1] = rates g ai/ha: chlropyrifos 1120, chlorothalonil 2630, paclobutrazol 3.23, mepiquat-chloride 12.3, + NIS 0.25 % v/v
# [2] = rates g ai/ha: chlropyrifos 3370, chlorothalonil 7900, paclobutrazol 9.7, mepiquat-chloride 37, + NIS 0.25 % v/v
# [3] = second-listed rate g ai/ha: chlropyrifos ###, chlorothalonil ###, paclobutrazol 9.7, mepiquat-chloride 37, + NIS 0.3 % v/v
# [4] = rates g ai/ha: chlroprifos 3370, chlorothalonil 7900, paclobutrazol 9.7, mepiquat-chloride 37, Isoxadifen 16, Napthalic anhydride 527, + NIS 0.25 % v/v
# [5] = rates g ai/ha: chlropyrifos 1120, chlorothalonil 2630, paclobutrazol 3.23, mepiquat-chloride 12.3, Isoxadifen 8, Napthalic anhydride 264, + NIS 0.25 % v/v
structure (smiles),measurement,setting,value
N#Cc1c(Cl)c(Cl)c(Cl)c(C#N)c1Cl [chlorothalonil],"Potassium, Percent Increase Over the Untreated Check (on a % dry matter basis)",kale 'Red Russian'; [1],−9 % check
same,"Sodium, Percent Increase Over the Untreated Check (on a % dry matter basis)",kale 'Red Russian'; [1],4 % check
same,"Zinc, Percent Increase Over the Untreated Check (on a % dry matter basis)",kale 'Red Russian'; [1],−4 % check
same,"ADF, Percent Increase Over the Untreated Check (on a % dry matter basis)",kale 'Red Russian'; [2],0 % check
same,"Calcium, Percent Increase Over the Untreated Check (on a % dry matter basis)",kale 'Red Russian'; [2],−1 % check
same,"Copper, Percent Increase Over the Untreated Check (on a % dry matter basis)",kale 'Red Russian'; [2],6 % check
same,"Iron, Percent Increase Over the Untreated Check (on a % dry matter basis)",kale 'Red Russian'; [2],−3 % check
same,"Magnesium, Percent Increase Over the Untreated Check (on a % dry matter basis)",kale 'Red Russian'; [2],−3 % check
same,"Manganese, Percent Increase Over the Untreated Check (on a % dry matter basis)",kale 'Red Russian'; [2],4 % check
same,"NDF, Percent Increase Over the Untreated Check (on a % dry matter basis)",kale 'Red Russian'; [2],−5 % check
same,"Phosphorous, Percent Increase Over the Untreated Check (on a % dry matter basis)",kale 'Red Russian'; [2],−3 % check
same,"Potassium, Percent Increase Over the Untreated Check (on a % dry matter basis)",kale 'Red Russian'; [2],−3 % check
same,"Sodium, Percent Increase Over the Untreated Check (on a % dry matter basis)",kale 'Red Russian'; [2],23 % check
same,"Zinc, Percent Increase Over the Untreated Check (on a % dry matter basis)",kale 'Red Russian'; [2],−3 % check
same,"Alanine, Percent Increase over the Untreated Check (on a % dry matter basis)",kale 'Red Russian'; [3],−5 % check
same,"Aspartic acid, Percent Increase over the Untreated Check (on a % dry matter basis)",kale 'Red Russian'; [3],−4 % check
same,"Cysteine, Percent Increase over the Untreated Check (on a % dry matter basis)",kale 'Red Russian'; [3],−6 % check
same,"Glutamic acid, Percent Increase over the Untreated Check (on a % dry matter basis)",kale 'Red Russian'; [3],−5 % check
same,"Glycine, Percent Increase over the Untreated Check (on a % dry matter basis)",kale 'Red Russian'; [3],−7 % check
same,"Iso-leucine, Percent Increase over the Untreated Check (on a % dry matter basis)",kale 'Red Russian'; [3],−2 % check
same,"Leucine, Percent Increase over the Untreated Check (on a % dry matter basis)",kale 'Red Russian'; [3],−1 % check
same,"Lysine, Percent Increase over the Untreated Check (on a % dry matter basis)",kale 'Red Russian'; [3],−3 % check
same,"Methionine, Percent Increase over the Untreated Check (on a % dry matter basis)",kale 'Red Russian'; [3],−2 % check
same,"Proline, Percent Increase over the Untreated Check (on a % dry matter basis)",kale 'Red Russian'; [3],−3 % check
same,"Threonine, Percent Increase over the Untreated Check (on a % dry matter basis)",kale 'Red Russian'; [3],−1 % check
same,"Total Amino acids, Percent Increase over the Untreated Check (on a % dry matter basis)",kale 'Red Russian'; [3],−4 % check
same,"Total Protein, Percent Increase over the Untreated Check (on a % dry matter basis)",kale 'Red Russian'; [3],−3 % check
same,"Valine, Percent Increase over the Untreated Check (on a % dry matter basis)",kale 'Red Russian'; [3],−3 % check
same,"ADF, Percent Increase Over the Untreated Check (on a % dry matter basis)",basil 'Genovese'; [4],1 % check
same,"Calcium, Percent Increase Over the Untreated Check (on a % dry matter basis)",basil 'Genovese'; [4],−15 % check
same,"Copper, Percent Increase Over the Untreated Check (on a % dry matter basis)",basil 'Genovese'; [4],−17 % check
same,"Iron, Percent Increase Over the Untreated Check (on a % dry matter basis)",basil 'Genovese'; [4],25 % check
same,"Magnesium, Percent Increase Over the Untreated Check (on a % dry matter basis)",basil 'Genovese'; [4],−6 % check
same,"Manganese, Percent Increase Over the Untreated Check (on a % dry matter basis)",basil 'Genovese'; [4],−8 % check
same,"NDF, Percent Increase Over the Untreated Check (on a % dry matter basis)",basil 'Genovese'; [4],12 % check
same,"Phosphorous, Percent Increase Over the Untreated Check (on a % dry matter basis)",basil 'Genovese'; [4],0 % check
same,"Potassium, Percent Increase Over the Untreated Check (on a % dry matter basis)",basil 'Genovese'; [4],7 % check
same,"Protein, Percent Increase Over the Untreated Check (on a % dry matter basis)",basil 'Genovese'; [4],3 % check
same,"Sodium, Percent Increase Over the Untreated Check (on a % dry matter basis)",basil 'Genovese'; [4],50 % check
same,"Soluble protein, Percent Increase Over the Untreated Check (on a % dry matter basis)",basil 'Genovese'; [4],42 % check
same,"Zinc, Percent Increase Over the Untreated Check (on a % dry matter basis)",basil 'Genovese'; [4],−6 % check
same,"ADF, Percent Increase Over the Untreated Check (on a % dry matter basis)",basil 'Genovese'; [5],1 % check
same,"Calcium, Percent Increase Over the Untreated Check (on a % dry matter basis)",basil 'Genovese'; [5],0 % check
same,"Copper, Percent Increase Over the Untreated Check (on a % dry matter basis)",basil 'Genovese'; [5],−17 % check
same,"Iron, Percent Increase Over the Untreated Check (on a % dry matter basis)",basil 'Genovese'; [5],37 % check
same,"Magnesium, Percent Increase Over the Untreated Check (on a % dry matter basis)",basil 'Genovese'; [5],3 % check
same,"Manganese, Percent Increase Over the Untreated Check (on a % dry matter basis)",basil 'Genovese'; [5],43 % check
same,"NDF, Percent Increase Over the Untreated Check (on a % dry matter basis)",basil 'Genovese'; [5],6 % check
same,"Phosphorous, Percent Increase Over the Untreated Check (on a % dry matter basis)",basil 'Genovese'; [5],9 % check
same,"Potassium, Percent Increase Over the Untreated Check (on a % dry matter basis)",basil 'Genovese'; [5],4 % check
same,"Protein, Percent Increase Over the Untreated Check (on a % dry matter basis)",basil 'Genovese'; [5],3 % check
same,"Sodium, Percent Increase Over the Untreated Check (on a % dry matter basis)",basil 'Genovese'; [5],8 % check
same,"Soluble protein, Percent Increase Over the Untreated Check (on a % dry matter basis)",basil 'Genovese'; [5],223 % check
same,"Zinc, Percent Increase Over the Untreated Check (on a % dry matter basis)",basil 'Genovese'; [5],38 % check
same,Yield Fresh weight,basil ‘Genovese’; [5],27.5 grams
same,Yield Fresh weight,"basil ‘Genovese’; rates g ai/ha: chlropyrifos 3370, chlorothalonil 7900, paclobutrazol 9.7, mepiquat-chloride 37, Isoxadifen 16, Napthalic anhydride 527, + NIS 0.25 % v/v",25.9 grams
same,Yield Fresh weight,kale ‘Red Russian’; [1],102.5 grams
same,Yield Fresh weight,kale ‘Red Russian’; [2],107.5 grams
